From patent US20210113602A1, “USE OF 6-THIO-2'-DEOXYGUANOSINE (6-THIO-dG) TO TREAT MELANOMA” (The Board of Regents of the University of Texas System, priority 2018, published 2021)

What was measured:
[1] = tested on: non-transformed primary human fibroblasts; test: Cell viability, Alamar Blue assay; assay type: cell-based; conditions: 7 days; telomerase negative cells
Procedure: (§1) FIGS. 2a-h. […] (FIGS. 2a-c) NRASmut melanoma cells (FIG. 2a), BRAF-V600E/NRAS mutant cells derived from melanoma patients resistant to BRAF/MEK inhibitors (FIG. 2b), or non-transformed melanocytes and fibroblasts (FIG. 2c) were treated with 6-thio-dG for 7 days. Cell viability was measured by Alamar Blue assay and calculated relative to DMSO-treated cells. (FIG. 2d) NRASmut melanoma cells and non-transformed human fibroblasts were treated with 1 or 5 μM 6-thio-dG for 7 or 14 days. Cell death was assessed by PSVUe staining. Percent of apoptotic cells is shown. (FIG. 2e) Cells were treated with DMSO or 1 μM 6-thio-dG for 14 days and telomere length was assessed by Southern blotting of TRF. Mean TRF length expressed as kilobase pairs is indicated at the bottom. (FIGS. 2f-g) Cells were treated with 1 μM 6-thio-dG for 7 days. (FIG. 2f) ROS production was measured by H2DCFDA fluorescence and normalized to MSO treated cells. (FIG. 2g) DNA damage was assessed by γH2AX staining. […] Tumor volume was measured and average tumor volume (n=4)±SEM was plotted vs. time.
(§2) Cell culture, viability and cell death assays. […] Cell viability was assessed following 6 hr incubation with 500 μM Alamar Blue (ThermoFisher Scientific, Waltham, Mass.) using an EnVision Xcite Multilabel plate reader (Perkin Elmer, Waltham, Mass.). […]

[2] = tested on: non-transformed primary human melanocytes; test: Cell viability, Alamar Blue assay; assay type: cell-based; conditions: 7 days; telomerase negative cells
Procedure: as §1, §2

KRAS mutant A549 cells = test: Cell death, Annexin V/PI; assay type: cell-based, human; conditions: 1 μM 6-thio-dG, 5 μM Gam
[3] = tested on: NRAS mutant melanoma cells; test: Cell death by flow cytometry (PSVue or Annexin V/PI); assay type: cell-based
Procedure: (FIG. 2d) NRASmut melanoma cells and non-transformed human fibroblasts were treated with 1 or 5 μM 6-thio-dG for 7 or 14 days. Cell death was assessed by PSVUe staining. Percent of apoptotic cells is shown. […] (FIGS. 2f-g) Cells were treated with 1 μM 6-thio-dG for 7 days. […] Data represent average from three independent experiments±SEM. *p<0.05; **p<0.01; ***p<0.005 in unpaired Student's t-test.
(FIG. 3f) SOD2 was silenced using shRNA. Transduced M93-047 cells were treated with DMSO or 1 μM of 6-thio-dG and cell death was assessed by Annexin V/PI straining. (FIG. 3g) M93-047 cells were transduced with a SOD2 lentiviral construct or empty vector control (pLX304). Transduced cells were treated with increasing doses (1, 2.5 and 5 μM) of 6-thio-dG for 7 days and cell death was assessed. Data represent average from three independent experiments±SEM. *p<0.05; **p<0.01; ***p<0.005 in unpaired Student's t-test.
(FIG. 4a) NRASmut melanoma cells transduced with TERT shRNA were treated 7 days post infection with 5 μM Gamitrinib (Gam) for 48 h. Cell death was assessed by Annexin V and PI staining. (FIG. 4b) NRASmut melanoma cells and non-transformed fibroblasts were treated with 1 μM 6-thio-dG for 5 days. At day 5, culture medium was replaced and cells treated with 1 μM 6-thio-dG plus 5 μM Gam for two more days. Cells were stained with Annexin V and PI and percent cell death was determined by flow cytometry. […] Data represent average of three independent experiments ±SEM. P values were calculated using unpaired Student's t-test; * p<0.05; ***p<0.005.
(Supplementary FIG. 10a) NRASmut melanoma cells were treated with 6-thio-dG (1 μ) for 7 days total. At day 5, culture medium was replaced and cells were treated with 1 μM 6-thio-dG plus 1 mM Phenformin for two more days. Percent cell death was determined by flow cytometry following staining of cells with Annexin V and Propidium iodide. Data represent average of three independent experiments +/−SEM. *p<0.05 in unpaired Student's t-test.

[4] = in mice; cited from earlier work
[5] = tested on: NRAS mutant melanoma cells; test: Mitochondrial ROS, MitoSox Red; assay type: cell-based, human; conditions: 1 μM 6-thio-dG for 7 days
Procedure: FIGS. 3a-g. Telomere dysfunction enhances oxidative stress leading to upregulation of an antioxidant program. (FIGS. 3a-d) NRASmut melanoma cells were transduced with TERT shRNA (FIG. 3a, FIG. 3c) or treated with 1 μM 6-thio-dG for 7 days (FIG. 3b, FIG. 3d). mRNA levels of the indicated genes were quantified by qRT-PCR (FIG. 3a, FIG. 3b). Mitochondrial superoxide production was measured by MitoSox Red fluorescence (FIG. 3c, FIG. 3d) and expressed as fluorescence relative to vector or DMSO controls. (FIG. 3e) NRASmut melanoma cells were treated with 1 μM of 6-thio-dG for the indicated times and SOD2 protein levels measured by Western blotting. (FIG. 3f) SOD2 was silenced using shRNA. Transduced M93-047 cells were treated with DMSO or 1 μM of 6-thio-dG and cell death was assessed by Annexin V/PI straining. (FIG. 3g) M93-047 cells were transduced with a SOD2 lentiviral construct or empty vector control (pLX304). Transduced cells were treated with increasing doses (1, 2.5 and 5 μM) of 6-thio-dG for 7 days and cell death was assessed. […]
FIGS. 4a-e. […] Cell death was assessed by Annexin V and PI staining. […] Cells were stained with Annexin V and PI and percent cell death was determined by flow cytometry. (FIGS. 4c-e) Cells were treated as in FIG. 4b and mitochondrial ROS levels were measured using Mitosox Red by FACS. […] P values were calculated using unpaired Student's t-test; * p<0.05; ***p<0.005. […]

[6] = tested on: NRAS mutant melanoma cells; test: ROS production, H2DCFDA fluorescence; assay type: cell-based, human; conditions: 1 μM for 7 days
Procedure: FIGS. 2a-h. […] (FIGS. 2a-c) NRASmut melanoma cells (FIG. 2a), BRAF-V600E/NRAS mutant cells derived from melanoma patients resistant to BRAF/MEK inhibitors (FIG. 2b), or non-transformed melanocytes and fibroblasts (FIG. 2c) were treated with 6-thio-dG for 7 days. Cell viability was measured by Alamar Blue assay and calculated relative to DMSO-treated cells. (FIG. 2d) NRASmut melanoma cells and non-transformed human fibroblasts were treated with 1 or 5 μM 6-thio-dG for 7 or 14 days. Cell death was assessed by PSVUe staining. Percent of apoptotic cells is shown. (FIG. 2e) Cells were treated with DMSO or 1 μM 6-thio-dG for 14 days and telomere length was assessed by Southern blotting of TRF. Mean TRF length expressed as kilobase pairs is indicated at the bottom. (FIGS. 2f-g) Cells were treated with 1 μM 6-thio-dG for 7 days. (FIG. 2f) ROS production was measured by H2DCFDA fluorescence and normalized to MSO treated cells. (FIG. 2g) DNA damage was assessed by γH2AX staining. Data represent average from three independent experiments±SEM. *p<0.05; **p<0.01; ***p<0.005 in unpaired Student's t-test. […] Tumor volume was measured and average tumor volume (n=4)±SEM was plotted vs. time.
Measurement of reactive oxygen species. General or mitochondrial specific ROS were measured by flow cytometry H2DCFDA or MitoSoxRed (Invitrogen, Waltham, Mass.) following manufacturer's specifications.

Nc1nc2c(ncn2[C@H]2C[C@H](O)[C@@H](CO)O2)c(=S)[nH]1 [6-thio-dG, 6-thio-2′-deoxy-guanosine]
cell viability [1]: did not significantly affect | cell viability [2]: did not significantly affect | cell death (KRAS mutant A549 cells): did not induce substantial death | cell death ([3]; 1 or 5 μM for 7 or 14 days, PSVue staining): led to cell death | apoptosis in SOD2 overexpressing cells ([3]; SOD2 lentiviral construct, 1, 2.5 and 5 μM 6-thio-dG): attenuated the apoptosis-inducing effects | apoptosis in SOD2 depleted cells ([3]; SOD2 shRNA, 1 μM 6-thio-dG, M93-047, WM3000): enhanced the ability of 6-thio-dG to induce apoptosis | alanine aminotransferase (ALT) [4]: no significant effects | aspartate aminotransferase (AST) [4]: no significant effects | creatinine levels [4]: no significant effects | red blood cells [4]: no significant effects | white blood cells [4]: no significant effects | mitochondrial ROS levels [5]: increased mitochondrial ROS levels | ROS levels [6]: increased levels
